From ChEMBL document CHEMBL3044885, “Synthesis and fungicidal activity against Rhizoctonia solani of 2-alkyl (Alkylthio)-5-pyrazolyl-1,3,4-oxadiazoles (Thiadiazoles)” (2000)

Tests used:
Rhizoctonia solani [1] = experiment: Fungicidal activity against Rhizoctonia solani inoculated on compound pre-treated fifth-leaf stage rice seedlings through foliar spraying assessed as inhibition of rice sheath blight disease at 100 ppm measured 4 days post fungal inoculation
Rhizoctonia solani [2] = experiment: Fungicidal activity against Rhizoctonia solani inoculated on compound pre-treated fifth-leaf stage rice seedlings through foliar spraying assessed as inhibition of rice sheath blight disease at 500 ppm measured 4 days post fungal inoculation

Compound	inhibition at 100 ppm (Rhizoctonia solani [1]) [%]	inhibition at 500 ppm (Rhizoctonia solani [2]) [%]
CCc1nn(C)c(-c2nnc(S)s2)c1Cl	90	100
CCc1nn(C)c(-c2nnc(SC)s2)c1Cl	90	90
CCSc1nnc(-c2c(Cl)c(CC)nn2C)s1	90	90
CCCSc1nnc(-c2c(Cl)c(CC)nn2C)s1	70	70
C=CCSc1nnc(-c2c(Cl)c(CC)nn2C)s1	25	50
CCCCCSc1nnc(-c2c(Cl)c(CC)nn2C)s1	25	70
CCc1nn(C)c(-c2nnc(S)o2)c1Cl	0	25
CCc1cc(-c2nnc(S)o2)n(C)n1	25	50
CCc1nn(C)c(-c2nnc(SC)o2)c1Cl	70	90
CCCSc1nnc(-c2c(Cl)c(CC)nn2C)o1	50	90
CCCCCSc1nnc(-c2c(Cl)c(CC)nn2C)o1	25	70
CCCCCCCSc1nnc(-c2c(Cl)c(CC)nn2C)o1	50	50
CCCCCCCCSc1nnc(-c2c(Cl)c(CC)nn2C)o1	50	50
CCOC(=O)C(C)Sc1nnc(-c2c(Cl)c(CC)nn2C)o1 (configuration not stated)	0	0
CCc1cc(-c2nnc(SC)o2)n(C)n1	50	90
CCSc1nnc(-c2cc(CC)nn2C)o1	50	90
CCCSc1nnc(-c2cc(CC)nn2C)o1	25	70
CCCCCSc1nnc(-c2cc(CC)nn2C)o1	0	50
CCOC(=O)C(C)Sc1nnc(-c2cc(CC)nn2C)o1 (configuration not stated)	0	25
CCc1nn(C)c(-c2n[nH]c(=O)o2)c1Cl	0	0
CCc1nn(C)c(-c2nn(C)c(=O)o2)c1Cl	0	25
CCc1nn(C)c(-c2nnc(CCl)o2)c1Cl	50	90
CCc1nn(C)c(-c2nnc(C(F)(F)F)o2)c1Cl	25	70
CCc1nnc(-c2c(Cl)c(CC)nn2C)o1	25	70
CCCCc1nnc(-c2c(Cl)c(CC)nn2C)o1	25	70
COC(=O)Nc1nc2ccccc2[nH]1 [CARBENDAZIM]	100	100
